Measured values published in article PMC3492849 (The Febs Journal, 2012).

What follows are compounds tested against PKD1L3/PKD2L1 (Mus musculus, UniProt A2A259+Q2EG98) (assay: Fura-2 Ca2+ imaging, neutralization method).
Sequence of PKD1L3/PKD2L1 (A2A259 whole entry): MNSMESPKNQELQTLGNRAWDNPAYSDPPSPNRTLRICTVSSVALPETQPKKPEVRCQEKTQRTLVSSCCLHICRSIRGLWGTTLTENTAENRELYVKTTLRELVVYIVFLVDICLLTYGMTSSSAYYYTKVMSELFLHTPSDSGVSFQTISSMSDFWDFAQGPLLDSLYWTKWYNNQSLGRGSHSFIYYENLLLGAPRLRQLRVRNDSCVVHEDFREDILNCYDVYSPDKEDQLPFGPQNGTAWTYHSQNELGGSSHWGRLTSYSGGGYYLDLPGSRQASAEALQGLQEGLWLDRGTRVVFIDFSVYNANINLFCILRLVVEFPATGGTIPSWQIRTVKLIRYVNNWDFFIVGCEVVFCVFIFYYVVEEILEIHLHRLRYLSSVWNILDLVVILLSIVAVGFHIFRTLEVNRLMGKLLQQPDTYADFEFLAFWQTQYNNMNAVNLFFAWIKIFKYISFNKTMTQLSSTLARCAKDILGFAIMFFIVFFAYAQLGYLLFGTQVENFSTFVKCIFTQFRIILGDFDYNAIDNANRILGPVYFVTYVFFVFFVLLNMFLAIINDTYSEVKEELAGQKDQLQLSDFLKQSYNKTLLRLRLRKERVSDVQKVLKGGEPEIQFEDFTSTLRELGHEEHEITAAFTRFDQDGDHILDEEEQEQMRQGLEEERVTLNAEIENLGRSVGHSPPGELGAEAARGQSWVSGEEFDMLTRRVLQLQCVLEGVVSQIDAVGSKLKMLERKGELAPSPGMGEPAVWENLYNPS
Sequence of PKD1L3/PKD2L1 (Q2EG98 21-2151): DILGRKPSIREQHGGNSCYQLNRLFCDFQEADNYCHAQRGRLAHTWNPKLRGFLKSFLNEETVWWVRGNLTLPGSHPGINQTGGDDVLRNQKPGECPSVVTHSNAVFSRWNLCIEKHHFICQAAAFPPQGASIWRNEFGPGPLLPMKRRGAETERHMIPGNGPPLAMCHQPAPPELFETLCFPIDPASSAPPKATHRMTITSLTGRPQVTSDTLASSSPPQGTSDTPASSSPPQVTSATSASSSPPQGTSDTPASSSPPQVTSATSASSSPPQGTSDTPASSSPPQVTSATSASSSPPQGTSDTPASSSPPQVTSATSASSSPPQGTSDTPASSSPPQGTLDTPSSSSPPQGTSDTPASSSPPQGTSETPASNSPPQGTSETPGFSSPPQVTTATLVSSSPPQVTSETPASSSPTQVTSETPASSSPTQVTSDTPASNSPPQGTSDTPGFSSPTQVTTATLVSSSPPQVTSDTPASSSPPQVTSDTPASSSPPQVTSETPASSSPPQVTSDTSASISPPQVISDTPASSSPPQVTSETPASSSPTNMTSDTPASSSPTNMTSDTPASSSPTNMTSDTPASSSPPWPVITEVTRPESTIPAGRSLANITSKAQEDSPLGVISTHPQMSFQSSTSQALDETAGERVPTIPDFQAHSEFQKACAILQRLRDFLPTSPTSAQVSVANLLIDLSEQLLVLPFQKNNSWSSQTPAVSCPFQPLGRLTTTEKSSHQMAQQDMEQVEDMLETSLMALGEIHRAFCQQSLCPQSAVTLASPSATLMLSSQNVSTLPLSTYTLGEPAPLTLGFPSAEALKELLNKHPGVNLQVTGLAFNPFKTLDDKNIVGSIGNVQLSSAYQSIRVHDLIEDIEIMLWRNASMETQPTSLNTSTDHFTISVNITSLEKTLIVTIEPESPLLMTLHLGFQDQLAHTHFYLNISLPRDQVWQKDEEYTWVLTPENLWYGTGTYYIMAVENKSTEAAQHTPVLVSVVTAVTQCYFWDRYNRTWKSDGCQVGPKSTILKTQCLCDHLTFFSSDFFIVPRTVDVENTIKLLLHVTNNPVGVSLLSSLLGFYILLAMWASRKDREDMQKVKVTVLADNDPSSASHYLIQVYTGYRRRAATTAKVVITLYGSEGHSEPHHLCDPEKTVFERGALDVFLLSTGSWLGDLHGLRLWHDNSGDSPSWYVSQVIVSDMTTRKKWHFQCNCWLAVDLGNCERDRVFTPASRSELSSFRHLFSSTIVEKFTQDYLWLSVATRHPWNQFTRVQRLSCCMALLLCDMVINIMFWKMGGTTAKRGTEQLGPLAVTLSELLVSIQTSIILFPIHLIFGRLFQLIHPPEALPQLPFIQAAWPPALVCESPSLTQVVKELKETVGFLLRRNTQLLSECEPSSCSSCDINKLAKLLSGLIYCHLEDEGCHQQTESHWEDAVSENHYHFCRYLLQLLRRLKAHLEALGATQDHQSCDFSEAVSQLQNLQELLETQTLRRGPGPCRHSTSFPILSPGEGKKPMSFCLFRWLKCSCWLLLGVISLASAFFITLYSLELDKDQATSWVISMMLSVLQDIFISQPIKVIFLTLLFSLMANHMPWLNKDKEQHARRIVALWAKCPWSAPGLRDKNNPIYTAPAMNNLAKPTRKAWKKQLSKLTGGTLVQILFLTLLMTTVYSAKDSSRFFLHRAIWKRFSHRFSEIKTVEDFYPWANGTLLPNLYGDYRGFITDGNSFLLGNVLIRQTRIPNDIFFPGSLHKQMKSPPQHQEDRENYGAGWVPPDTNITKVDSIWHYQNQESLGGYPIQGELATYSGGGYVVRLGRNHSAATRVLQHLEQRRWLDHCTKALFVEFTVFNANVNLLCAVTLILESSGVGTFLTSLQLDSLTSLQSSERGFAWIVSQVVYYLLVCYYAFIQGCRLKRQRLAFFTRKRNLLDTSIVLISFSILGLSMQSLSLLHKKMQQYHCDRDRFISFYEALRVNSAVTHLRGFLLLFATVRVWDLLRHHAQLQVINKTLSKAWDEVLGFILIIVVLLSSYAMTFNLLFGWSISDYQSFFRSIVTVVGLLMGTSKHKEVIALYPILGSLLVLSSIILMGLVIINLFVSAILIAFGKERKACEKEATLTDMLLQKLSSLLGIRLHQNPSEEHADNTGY
Type: cell-based
For `CCCCC[C@H](O)CC(=O)CCc1ccc(O)c(OC)c1` [6-gingerol], the IC50 was 85.9 ± 34.7 µM. Work on `COc1ccc(CCCOC(Cn2ccnc2)c2ccc(OC)cc2)cc1` (stereo not shown) [SKF96365] yielded an IC50 of 48.1 ± 10.8 µM. Compound `COc1cc(CNC(=O)CCCC/C=C/C(C)C)ccc1O` [capsaicin] has an IC50 of 32.5 ± 10.2 µM. `COc1cc(CNC(=O)CCCCCCC(C)C)ccc1O` [dihydrocapsaicin] gave an IC50 of 55 ± 14.2 µM.
